Measurements published in US20070154963A1, “Method to determine whether a compound is a cellular GSTpi inhibitor” (priority 2005, published 2007).
Numbered stars: 1 amine (or outer) side, 2 acyl side, 3 side chain; on linkers, the order of the positions; unused ones are H or OH. Square brackets hold non-standard residues; d marks the D form. Peptide text beside a SMILES is read from it. * marks the point of attachment. γGlu = O=C(O)[C@H](CCC(=O)[*:2])N[*:1]; dPhg = N[C@@H](C(=O)O)c1ccccc1; Bn = c1ccc(C*)cc1

Columns and labels:
[1] = biological target: GST P1-1 (Homo sapiens, UniProt P09211); conditions: purified GST P1-1 isoenzyme; read-out: GST P1-1 inhibition IC50; cited from earlier work
[2] = cited from earlier work
[3] = MDS clinical trial, interim results; cited from earlier work
[4] = test system: HL-60 promyelocytic leukemia cells; conditions: in vitro; cited from earlier work
[5] = normal animals and animals depleted by cisplatin or fluorouracil; cited from earlier work
[6] = test system: hematopoietic progenitor cells in normal human peripheral blood; conditions: all three lineages; cited from earlier work
[7] = biological target: T1, GSTπ (Homo sapiens, UniProt P09211); experiment: cellular GSTπ inhibition: immunoprecipitable GSTπ in HL-60 cell lysate, Western blot; format: cell-based
T1 construct: host or cells: HL-60 human promyelocytic leukemia cells
Procedure: RPMI 1640 medium, NuPAGE® LDS sample buffer (non-reducing lithium dodecyl sulfate buffer, Catalog # NP0007), and NuPAGE® Novex 4-12% Bis-Tris polyacrylamide gels (Catalog # NP0321) were obtained from Invitrogen, Inc., Carlsbad, Calif., U.S.A. Complete Mini protease inhibitor cocktail tablets (Catalog # 04 693 124 001) were obtained from Roche Diagnostics, Inc., Indianapolis, Ind., U.S.A., and were used according to package directions. Lysis buffer (50 mM Tris, pH 8.0, 120 mM NaCl, 0.5% NP-40, and 100 mM NaF) was prepared at Telik, Inc., and the protease inhibitors added shortly before use.
HL-60 cells were seeded at 6×10^5 cells/mL in 20 mL RPMI 1640 medium supplemented with 10% fetal bovine serum, 1 mM L-glutamine and 20 μM gentamycin in each of six T75 flasks, and incubated at 37° C. overnight in a 5% CO2 atmosphere. […] The contents of each flask were then treated as follows: the cells were pelleted by centrifugation and the cell pellet washed twice with phosphate-buffered saline. The cells were then lysed by suspending the pellet in 1 mL lysis buffer, and incubating with gentle agitation at 4° C. for 30 minutes. The cell lysate was cleared by centrifugation at 13,000 rpm for 10 minutes, and the protein content of the lysate was measured using the Bio-Rad protein assay kit. Cell lysate containing 1 mg total proteins was incubated at 4° C. overnight with 4.2 μg of purified mouse monoclonal anti-human GSTπ antibody in 1 mL total volume. Protein A/G agarose beads, 50 μL, were added to the mixture and incubated at 4° C. for 1 hour. The beads were collected by centrifugation, washed three times in lysis buffer, and resuspended in 10 μL 1× non-reducing lithium dodecyl sulfate buffer, and the suspension heated at 95° C. for 5 minutes. The proteins from the six cell lysates, together with a molecular weight marker, were then separated by electrophoresis on a 4-12% Bis-Tris gel and transferred to a nitrocellulose membrane. […] The GSTπ protein bands were visualized and the summed intensities of the GST P1-1 dimer and GST P1 monomer bands quantitated on an Odyssey infrared scanner.

[8] = HL-60 cells, 1-40 μM, two hours

T1 sequence (P09211 2-210 limits assumed): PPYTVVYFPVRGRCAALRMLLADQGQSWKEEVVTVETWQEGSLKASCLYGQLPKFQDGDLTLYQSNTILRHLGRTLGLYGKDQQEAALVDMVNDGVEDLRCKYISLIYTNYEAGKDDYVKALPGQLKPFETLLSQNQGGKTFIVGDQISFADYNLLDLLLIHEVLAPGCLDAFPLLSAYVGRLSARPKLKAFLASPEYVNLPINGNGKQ
Sequence of GST P1-1 (P09211 2-210 limits assumed, species assumed): as the sequence (P09211 2-210 limits assumed) above

SMILES | IC50 [1] | permeability through cell membrane [2] | hematologic response [3] | tolerability [3] | differentiation of HL-60 cells [4] | white blood cell production [5] | colony formation of hematopoietic progenitor cells [6] | inhibition at 20 µM ([7]; HL-60, 20 μM) | cellular GSTπ inhibition (amounts of immunoprecipitable GST P1 and GST P1-1 vs DMSO control) [7, 8] | concentration dependence of cellular GSTπ inhibitory effect [7, 8]
N[C@@H](CCC(=O)N[C@@H](CSCc1ccccc1)C(=O)N[C@@H](C(=O)O)c1ccccc1)C(=O)O [TLK117, L-γ-glutamyl-S-(phenylmethyl)-L-cysteinyl-D-phenylglycine] (γGlu-Cys(Bn)-[dPhg]-OH) | ~400 nM | poor permeability |  |  |  |  |  |  |  | 
CCOC(=O)[C@@H](N)CCC(=O)N[C@@H](CSCc1ccccc1)C(=O)N[C@@H](C(=O)OCC)c1ccccc1 [TLK199] | > 200000 nM |  | multilineage hematologic improvement | well tolerated | induce the differentiation | increase white blood cell production | stimulate colony formation | ~90% | is a cellular GSTπ inhibitor | concentration dependent
